Test results as given in the supplement of paper PMC10307832.

What was measured:
Experiment in all cases: relative viability (nuclei count vs DMSO), 5 days (fraction); higher = more cells survive
TPCA-1 + Phenformin = compound: C1=CC(=CC=C1C2=CC(=C(S2)NC(=O)N)C(=O)N)F [TPCA-1] + N=C(N)NC(=N)NCCc1ccccc1 [Phenformin] (partner 250 µM)
How it was run: (§1)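 Values are medians from duplicate plates. Each reflects relative viability, defined as the nuclei count of treated wells over that of vehicle wells. Lung cancer cell lines in 1536-well plates were pin-tool dosed one day after seeding with one drug alone or with a fixed anchor-drug dose plus five library-drug doses (not always all listed) in √10 steps, then fixed, stained and imaged at 4× after 5 days.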

TPCA-1 + AZD7762 = compound: C1=CC(=CC=C1C2=CC(=C(S2)NC(=O)N)C(=O)N)F [TPCA-1] + NC(=O)Nc1cc(-c2cccc(F)c2)sc1C(=O)N[C@H]1CCCNC1 [AZD7762] (partner 0.2 µM)
How it was run: as §1

TPCA-1 + Tozasertib = compound: C1=CC(=CC=C1C2=CC(=C(S2)NC(=O)N)C(=O)N)F [TPCA-1] + Cc1cc(Nc2cc(N3CCN(C)CC3)nc(Sc3ccc(NC(=O)C4CC4)cc3)n2)n[nH]1 [Tozasertib] (partner 0.1 µM)
How it was run: as §1

[1] = compound: C1/C(=C\C2=CC=CS2)/C(=O)/C(=C/C3=CC=CS3)/C1 + CCNC(=O)c1noc(-c2cc(C(C)C)c(O)cc2O)c1-c1ccc(CN2CCOCC2)cc1 [Luminespib] (partner 0.01 µM)
How it was run: as §1

Cell Line | relative viability (TPCA-1 + Phenformin; first compound 0.04 µM) | relative viability (TPCA-1 + Phenformin; first compound 0.1265 µM) | relative viability (TPCA-1 + Phenformin; first compound 0.4 µM) | relative viability (TPCA-1 + Phenformin; first compound 1.265 µM) | relative viability (TPCA-1 + Phenformin; first compound 4 µM) | relative viability (TPCA-1 + AZD7762; first compound 0.04 µM) | relative viability (TPCA-1 + AZD7762; first compound 0.1265 µM) | relative viability (TPCA-1 + AZD7762; first compound 0.4 µM) | relative viability (TPCA-1 + AZD7762; first compound 1.265 µM) | relative viability (TPCA-1 + AZD7762; first compound 4 µM) | relative viability (TPCA-1 + Tozasertib; first compound 0.04 µM) | relative viability (TPCA-1 + Tozasertib; first compound 0.1265 µM) | relative viability (TPCA-1 + Tozasertib; first compound 0.4 µM) | relative viability (TPCA-1 + Tozasertib; first compound 1.265 µM) | relative viability (TPCA-1 + Tozasertib; first compound 4 µM) | relative viability ([1]; first compound 0.2 µM) | relative viability ([1]; first compound 0.6325 µM) | relative viability ([1]; first compound 2 µM) | relative viability ([1]; first compound 6.325 µM) | relative viability ([1]; first compound 20 µM)
201T | 0.484 | 0.454 | 0.425 | 0.378 | 0.426 | 0.704 | 0.63 | 0.627 | 0.582 | 0.558 | 0.958 | 0.924 | 1.05 | 0.976 | 0.636 | 1.14 | 1.05 | 1.04 | 1.03 | 1.01
A549 | 0.206 | 0.162 | 0.151 | 0.141 | 0.0882 |  |  |  |  |  |  |  |  |  |  |  |  |  |  | 
A-427 | 0.423 | 0.283 | 0.371 | 0.19 | 0.145 | 0.881 | 0.801 | 0.89 | 0.811 | 0.624 | 0.231 | 0.211 | 0.192 | 0.161 | 0.147 | 1.01 | 0.905 | 0.939 | 0.876 | 0.977
ABC-1 | 0.292 | 0.22 | 0.197 | 0.211 | 0.203 |  | 0.606 | 0.935 | 0.836 | 0.945 | 0.153 | 0.199 | 0.137 | 0.163 | 0.142 | 0.33 | 0.853 | 1.04 | 0.428 | 0.521
BEN | 0.304 | 0.262 | 0.255 | 0.254 | 0.249 | 0.677 | 0.665 | 0.9 | 1.08 | 0.505 | 0.548 |  | 0.526 | 0.628 | 0.403 | 0.477 | 0.403 | 0.476 | 0.344 | 0.253
CAL-12T | 0.622 | 0.51 | 0.612 | 0.51 | 0.172 | 0.702 | 0.583 | 0.667 | 0.565 | 0.555 | 0.327 | 0.299 | 0.257 | 0.236 | 0.206 | 0.374 | 0.316 | 0.404 | 0.444 | 0.364
COR-L23 | 0.483 | 0.47 | 0.436 | 0.415 | 0.328 |  |  |  |  |  | 0.155 | 0.168 | 0.18 | 0.134 | 0.129 | 0.583 | 0.692 | 0.577 | 0.721 | 0.544
COR-L 105 | 0.471 | 0.406 | 0.448 | 0.368 | 0.323 |  |  |  |  |  | 0.398 | 0.355 | 0.309 | 0.349 | 0.335 | 0.97 | 0.502 | 0.808 |  | 0.586
ChaGo-K-1 | 0.524 | 0.472 | 0.54 | 0.48 | 0.259 | 0.869 | 0.883 | 0.904 | 0.8 | 0.522 | 0.232 | 0.237 | 0.251 | 0.226 | 0.207 | 0.62 | 0.652 | 0.45 | 0.295 | 0.22
EKVX | 0.215 | 0.22 | 0.252 | 0.198 | 0.125 | 0.739 |  | 0.813 | 0.669 | 0.677 | 0.387 | 0.332 | 0.428 | 0.354 | 0.284 | 0.914 | 0.83 | 0.904 | 0.678 | 0.842
EMC-BAC-2 | 0.604 | 0.476 | 0.571 | 0.4 | 0.247 | 1.15 | 1.09 | 1.27 | 1.03 | 0.72 | 0.251 | 0.306 | 0.302 | 0.498 | 0.25 | 1.23 | 1.23 | 1.19 | 1.09 | 1.12
EPLC-272H | 0.343 | 0.391 | 0.292 | 0.289 | 0.272 | 0.368 | 0.26 | 0.314 | 0.26 | 0.276 | 0.652 | 0.277 | 0.31 | 0.442 | 0.251 | 0.53 | 0.326 | 0.267 | 0.513 | 0.561
H3255 | 0.39 | 0.39 | 0.353 | 0.356 | 0.316 | 0.925 | 0.835 | 0.863 | 0.688 | 0.694 | 0.612 | 0.6 | 0.623 | 0.58 | 1.03 | 1.21 | 0.855 | 0.954 | 0.871 | 0.907
HARA | 0.476 | 0.45 | 0.469 | 0.484 | 0.162 | 0.317 | 0.504 | 0.39 | 0.471 | 0.349 | 0.136 | 0.118 | 0.0913 | 0.0917 | 0.0916 | 0.785 | 0.923 | 1.09 | 0.853 | 0.791
HCC-15 | 0.578 | 0.479 | 0.509 | 0.435 | 0.275 | 1.31 | 1.09 | 1.21 | 1.28 | 1.15 | 0.413 | 0.438 | 0.338 | 0.276 | 0.15 | 0.396 | 0.245 | 0.234 | 0.211 | 0.219
HCC-44 | 0.195 | 0.178 | 0.209 |  | 0.153 | 1 | 1.01 | 0.982 | 1.08 | 1.02 | 1.07 | 0.937 | 0.889 |  | 0.294 | 1.09 | 1.19 | 1.08 | 0.942 | 0.965
HCC-78 | 0.724 | 0.732 | 0.657 | 0.693 | 0.436 | 0.745 | 0.742 | 0.801 | 0.545 | 0.497 | 0.406 | 0.413 | 0.427 | 0.477 | 0.205 |  |  |  |  | 
HCC-366 | 0.727 | 0.617 | 0.652 | 0.673 | 0.098 |  | 0.297 | 0.312 | 0.185 | 0.147 | 0.107 | 0.135 | 0.0742 | 0.0631 | 0.0314 |  |  |  |  | 
